Measured values reported in PubChem BioAssay (NCI).
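96-well plates; 48 h exposure; 5 concentrations. Endpoints by linear interpolation between flanking doses. Not reached: highest tested concentration assigned. At the GI50, growth is halved. Definition used: TGI = concentration required for complete inhibition of growth.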 Where a SMILES comes first, the peptide text is derived from it. The star is where a group is joined. Boc = CC(C)(C)OC(=O)*; nBu = CCCC*

Legend:
Assay in all cases: NCI anticancer screen, dose series, 48 h
[1] = tested on: TK-10 renal
[2] = tested on: SK-MEL-28 melanoma
[3] = tested on: OVCAR-5 ovarian
[4] = tested on: SNB-75 CNS
[5] = tested on: EKVX NSCLC
[6] = tested on: RXF 393 renal
[7] = tested on: NCI-H23 lung
[8] = tested on: SF-295 CNS
[9] = tested on: IGROV1 ovarian
[10] = tested on: MDA-MB-435
[11] = tested on: OVCAR-3 ovarian

Structure (SMILES)	TGI [1]	TGI [2]	TGI [3]	TGI [4]	TGI [5]	TGI [6]	TGI [7]	TGI [8]	TGI [9]	TGI [10]	TGI [11]	GI50 [3]	GI50 [9]
Oc1ccccc1C=Nc1ccc(-c2nc3ccccc3s2)cc1	71.4 µM	> 100 µM	> 100 µM	99.3 µM	85.2 µM	> 100 µM	> 100 µM	55.9 µM	> 100 µM	> 100 µM	88 µM	–	–
CC1(C)OC[C@@H]([C@@]2(COC(c3ccccc3)(c3ccccc3)c3ccccc3)CC=CC(=O)O2)O1	> 100 µM	> 100 µM	> 100 µM	59.3 µM	83.8 µM	69.5 µM	> 100 µM	> 100 µM	–	> 100 µM	> 100 µM	–	–
CCCCCCCCCCCCCCCc1nc(=S)[nH][nH]1	> 100 µM	> 100 µM	> 100 µM	> 100 µM	> 100 µM	> 100 µM	> 100 µM	–	–	–	> 100 µM	–	–
O=C(Nc1ccccc1)Oc1ccc(C(=S)Nc2ccc(Br)cc2)cc1	–	46.4 µM	46.4 µM	–	31.1 µM	–	37.2 µM	84.3 µM	28 µM	39.7 µM	52.8 µM	–	–
CC1=NN(c2nc(N)nc(/C(C#N)=C\c3ccc(-c4ccc([N+](=O)[O-])cc4)o3)n2)C(C)(C)C1	> 100 µM	> 100 µM	> 100 µM	51.6 µM	> 100 µM	> 100 µM	> 100 µM	> 100 µM	> 100 µM	> 100 µM	> 100 µM	–	–
COC(=O)/C=C\C(C#N)(C#N)N=Cc1ccc(OC)cc1	6.73 µM	12.8 µM	40.7 µM	34.2 µM	32 µM	5.42 µM	28.3 µM	53 µM	28.7 µM	5.44 µM	6.64 µM	–	–
Cc1cc(-c2nc3c(F)cccc3s2)ccc1N	–	> 100 µM	76.2 µM	> 100 µM	31.5 µM	> 100 µM	> 100 µM	> 100 µM	> 100 µM	> 100 µM	> 100 µM	1.68 µM	22.7 µM
COc1cc(C2S/C(=C/c3ccccc3)C(=O)N2c2cccc(NC(C)=O)c2)cc(OC)c1OC (stereo unspecified)	> 100 µM	> 100 µM	> 100 µM	28 µM	53.2 µM	> 100 µM	> 100 µM	> 100 µM	–	47.2 µM	–	–	–
O=CNc1ccccc1OCCOc1ccccc1NC=O	> 100 µM	> 100 µM	> 100 µM	> 100 µM	> 100 µM	> 100 µM	> 100 µM	> 100 µM	> 100 µM	> 100 µM	> 100 µM	–	–
O=P(NCCCO)(OCc1ccccc1)N(CCCl)CCCl (stereo unspecified)	–	> 100 µM	> 100 µM	> 100 µM	–	> 100 µM	> 100 µM	> 100 µM	> 100 µM	–	> 100 µM	–	–
COc1ccccc1-c1c(C#N)c(N)[nH]c(=S)c1C#N	> 100 µM	> 100 µM	> 100 µM	–	> 100 µM	> 100 µM	> 100 µM	> 100 µM	> 100 µM	> 100 µM	> 100 µM	–	–
CC(Oc1ccc(Cl)cc1Cl)C(=O)NN1C(=O)CC(=O)N(c2ccccc2)C1=S (stereo unspecified)	> 100 µM	> 100 µM	> 100 µM	> 100 µM	> 100 µM	> 100 µM	> 100 µM	> 100 µM	> 100 µM	> 100 µM	> 100 µM	–	–
CC(C)CC(N)C(=O)NC(C(=O)NC(CCCNC(=N)N)C(=O)NC(CS)C(=O)NC1CSCC(C(=O)NC(Cc2ccccc2)C(=O)NC(C(=O)NC(CCCNC(=N)N)C(=O)O)C(C)C)NC(=O)C2CCCN2C(=O)C(CCCCN)NC(=O)C2CCCN2C(=O)C2CCCN2C(=O)C(Cc2ccc(O)cc2)NC(=O)C(CO)NC(=O)C(CCCCN)NC(=O)C(C(C)O)NC(=O)C(Cc2c[nH]c3ccccc23)NC1=O)C(C)C (stereo unspecified)	> 25 µM	> 25 µM	> 25 µM	–	> 25 µM	–	> 25 µM	> 25 µM	> 25 µM	> 25 µM	> 25 µM	–	–
COc1ccc(C2C3CCc4ccccc4C3=NN2S(=O)(=O)c2cccc(C(=O)O)c2OC)cc1 (stereo unspecified)	> 100 µM	–	> 100 µM	–	> 100 µM	62 µM	> 100 µM	35.1 µM	> 100 µM	4.15 µM	68.6 µM	–	–
Nc1nc(SCC(=O)c2ccc(Br)cc2)c2[nH]cnc2n1	56.8 µM	> 100 µM	> 100 µM	73 µM	> 100 µM	> 100 µM	> 100 µM	> 100 µM	50.8 µM	> 100 µM	> 100 µM	–	–
COc1ccc(CCn2cncn2)cc1	> 100 µM	> 100 µM	> 100 µM	> 100 µM	> 100 µM	–	> 100 µM	> 100 µM	> 100 µM	–	> 100 µM	–	–
COc1ccccc1N/C(SCc1ccccc1)=C(/C(Cl)=C(Cl)Cl)[N+](=O)[O-]	–	28.5 µM	> 100 µM	84.2 µM	> 100 µM	–	31.7 µM	59.6 µM	–	42.5 µM	40.7 µM	–	–
COc1ccc2nc3cc(Cl)ccc3c(NCCCN3CCN(CCCNc4ccc5nnn6c7ccccc7c(=O)c4c56)CC3)c2c1	> 25 µM	> 25 µM	> 25 µM	> 25 µM	> 25 µM	6.25 µM	> 25 µM	> 25 µM	> 25 µM	> 25 µM	> 25 µM	–	–
Cc1ccc(-c2cn3c(nc4ccccc43)c(/C=C/c3ccco3)n2)cc1	> 100 µM	> 100 µM	> 100 µM	> 100 µM	–	> 100 µM	> 100 µM	–	> 100 µM	> 100 µM	> 100 µM	–	–
CCCCOc1ccc(CC(NC(=O)OC(C)(C)C)C(=O)NC(C)C(=O)NC(Cc2ccccc2)C(=O)NCC(N)=O)cc1 (stereo unspecified) (Boc-Y(nBu)AFG-NH2; configuration not given here)	> 100 µM	> 100 µM	> 100 µM	> 100 µM	–	> 100 µM	> 100 µM	> 100 µM	> 100 µM	> 100 µM	> 100 µM	–	–
